Assay results: US10975068B2, “6-aminopyridin-3-yl thiazoles as modulators of RORγT” (Janssen Pharmaceutica NV, priority 2016, dated 2021)

Target: full-length human RORγt (Homo sapiens (Human), UniProt P51449)
Test: RORγt (full-length human) reporter assay, Conditions B or C
Assay type: cell-based
Details: for inhibition at 3 µM: at 3 μM compound concentration, read-out: RORγt (FL) Reporter Assay B or C, % inhibition
From the text: RORγt (Full-Length Human) Reporter Assay:
Cells used in this assay were transiently co-transfected with three different plasmids, one expressing the GAL4-DNA binding domain (DBD)-RORγt fusion protein under control of a CMV promoter (NH2-Gal4-DBD:RORC-COOH in pCMV-BD, Stratagene #211342), and two reporter plasmids—the firefly luciferase reporter under control of a GAL4 promoter (pFR-Luc 2×GAL4) and Renilla luciferase reporter under control of CMV promoter (pRL-CMV, Promega # E2261). The full-length coding sequence was used for human RORγt, i.e., nucleotides 142-1635 of human RORγt, transcript variant 2, NCBI Accession: NM_001001523.1 (SEQ ID NO:1). HEK293T cells were plated at 35,000 per well in 96-well plate in medium of DMEM with 10% FBS. After 18-22 hours incubation, the transfection was carried out by using a PEI solution with 170.5 ng total DNA/well (50 ng pCMV-BD-ROR plus 20 ng of pFR-Luc reporter and 0.5 ng of pRL-CMV reporter plus 100 ng Carrier DNA (Clontech #630440) for each well). 4-6 hours after transfection, cells were treated with compounds for overnight in the medium with final concentration of FBS 1.3% and DMSO 0.1%. After overnight (16 to 20 hours) incubation, media were removed and cells were lysed with 50 μL Glo Lysis Buffer (Promega) for 10-15 minutes followed by 10 minute incubation with 50 μL Dual Glo reagent (Promega) at room temperature. Firefly luciferase luminescence was measured using a BMG Pherastar plate reader. To each well, 50 μL Stop and Glo reagent was added and incubated for 10 minutes at room temperature. Renilla luminescence was measured using a BMG Pherastar plate reader. To calculate the effect of compounds on RORγt activity, firefly values were normalized against values of DMSO only and values of reference compound at saturating concentration, then further normalized against Renilla signals. IC50s were generated by plotting final Renilla normalized data against compound concentration and percent inhibition was calculated against DMSO control.
Cells used in this assay were transiently co-transfected with three different plasmids, one expressing the GAL4-DNA binding domain (DBD)-RORγt fusion protein under control of a CMV promoter (NH2-Gal4-DBD:RORC-COOH in pCMV-BD, Stratagene #211342), and two reporter plasmids—the firefly luciferase reporter under control of a GAL4 promoter (pFR-Luc 2×GAL4) and Renilla luciferase reporter under control of CMV promoter (pRL-CMV, Promega # E2261). The full-length coding sequence was used for human RORγt, i.e., nucleotides 142-1635 of human RORγt, transcript variant 2, NCBI Accession: NM_001001523.1 (SEQ ID NO:1). HEK293T cells were plated at 8750 cells per well in 384-well plate in medium of DMEM with 10% FBS. After 18-22 hours incubation, the transfection was carried out by using a PEI solution with 42.6 ng total DNA/well (12.5 ng pCMV-BD-ROR plus 5 ng of pFR-Luc reporter and 0.125 ng of pRL-CMV reporter plus 25 ng Carrier DNA (Clontech #630440) for each well). 4-6 hours after transfection, cells were treated with compounds for overnight in the medium with final concentration of FBS 1.3% and DMSO 0.1%. After overnight (16 to 20 hours) incubation, media were removed and cells were lysed with 20 μL Glo Lysis Buffer (Promega) for 10-15 minutes followed by 10 minute incubation with 20 μL Dual Glo reagent (Promega) at room temperature. Firefly luciferase luminescence was measured using a BMG Pherastar plate reader. To each well, 20 μL Stop and Glo reagent was added and incubated for 10 minutes at room temperature. Renilla luminescence was measured using a BMG Pherastar plate reader. To calculate the effect of compounds on RORγt activity, firefly values were normalized against values of DMSO only and values of reference compound at saturating concentration, then further normalized against Renilla signals.

full-length human RORγt, sequence (P51449 other isoform, or with tags, fused parts or gaps): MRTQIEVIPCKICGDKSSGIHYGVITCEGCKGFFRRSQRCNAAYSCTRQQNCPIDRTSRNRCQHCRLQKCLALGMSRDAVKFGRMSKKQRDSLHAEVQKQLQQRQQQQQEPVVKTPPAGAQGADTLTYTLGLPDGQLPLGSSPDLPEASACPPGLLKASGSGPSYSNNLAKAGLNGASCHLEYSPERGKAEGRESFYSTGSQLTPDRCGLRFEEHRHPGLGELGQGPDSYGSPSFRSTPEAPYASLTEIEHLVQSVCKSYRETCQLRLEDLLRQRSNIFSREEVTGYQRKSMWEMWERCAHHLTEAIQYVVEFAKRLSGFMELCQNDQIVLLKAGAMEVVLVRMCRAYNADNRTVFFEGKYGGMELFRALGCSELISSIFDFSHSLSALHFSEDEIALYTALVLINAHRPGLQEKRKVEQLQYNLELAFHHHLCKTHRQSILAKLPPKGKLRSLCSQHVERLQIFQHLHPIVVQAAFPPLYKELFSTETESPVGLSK

Row | inhibition at 3 µM [%] | SMILES | other results
1 | – | CC[C@H](Nc1cc(C(F)F)c(-c2sc(C(=O)NCC(C)(C)O)nc2C(=O)N2CCC[C@@H]2C)cn1)C(F)(F)F [Example 92, 5-(4-(Difluoromethyl)-6-(((S)-1,1,1-trifluorobutan-2-yl)amino)pyridin-3-yl)-N-(2-hydroxy-2-methylpropyl)-4-((S)-2-methylpyrrolidine-1-carbonyl)thiazole-2-carboxamide] | RORγt (FL) Reporter Assay B or C, % inhibition (value marked *) (Conditions B or C, marked *: footnote not given): 106* %
2 | 100 | [2H]C([2H])(NC(=O)c1nc(C(=O)N2CCC[C@@H]2C)c(-c2cnc(N[C@@H](CC)C(F)(F)F)cc2C(F)F)s1)C(C)(C)O [Example 266, N-(1,1-Dideuterio-2-hydroxy-2-methyl-propyl)-5-[4-(difluoromethyl)-6-[[(1S)-1-(trifluoromethyl)propyl]amino]-3-pyridyl]-4-[(2S)-2-methylpyrrolidine-1-carbonyl]thiazole-2-carboxamide] | –
3 | 98 | C[C@H]1CCCN1C(=O)c1nc(C(=O)NCC(C)(C)O)sc1-c1cnc(NC2CCCCC2)c(C#N)c1 [Example 281, 5-[5-Cyano-6-(cyclohexylamino)-3-pyridyl]-N-(2-hydroxy-2-methyl-propyl)-4-[(2S)-2-methylpyrrolidine-1-carbonyl]thiazole-2-carboxamide] | IC50 (read-out: RORγt (FL) Reporter Assay B or C, IC50): 830 nM
4 | 104 | [2H]C([2H])(NC(=O)c1nc(C(=O)N2CCC[C@@H]2C)c(-c2cnc(N[C@@H](C)C(F)(F)F)cc2C(F)F)s1)C(C)(C)O [Example 286, 5-(4-(Difluoromethyl)-6-(((S)-1,1,1-trifluoropropan-2-yl)amino)pyridin-3-yl)-N-(2-hydroxy-2-methylpropyl-1,1-d2)-4-((S)-2-methylpyrrolidine-1-carbonyl)thiazole-2-carboxamide] | –
5 | – | C[C@H](Nc1cc(C(F)F)c(-c2sc(C(=O)NCC(C)(C)O)nc2C(=O)N2CCC[C@@H]2C)cn1)C(F)(F)F [Example 145, 5-(4-(Difluoromethyl)-6-(((S)-1,1,1-trifluoropropan-2-yl)amino)pyridin-3-yl)-N-(2-hydroxy-2-methylpropyl)-4-((S)-2-methylpyrrolidine-1-carbonyl)thiazole-2-carboxamide] | RORγt (FL) Reporter Assay B or C, % inhibition (value marked ***) (Conditions B or C, marked ***: footnote not given): 76*** %
